Data set [1] is described as follows: Cytotoxicity against human MCF7 cells assessed as reduction in cell viability after 48 hrs by MTT assay. The class given is toxicity, cell-based. Background: Formazan colour is commonly taken as a measure of viable cells.
For data set [2], the system named is Caenorhabditis elegans. Kind of data set: Anthelmintic activity against Caenorhabditis elegans N2 Bristol assessed as lethality on young adult worms at 10 mM incubated for 48 hrs. It is filed as functional, organism-based.
The subject of data set [3] is Caenorhabditis elegans. Briefly: Anthelmintic activity against Caenorhabditis elegans N2 Bristol assessed as mortality at 40 mM relative to control.
The next data set concerns Leishmania donovani. Kind of data set: Antiprotozoal activity against Leishmania donovani MHOM-ET-67/L82 amastigotes incubated for 72 hrs by microplate reader analysis. The class given is functional, organism-based. The note with it: MHOM-ET-67/L82, 72 h.
Data set [4] deals with Caenorhabditis elegans. Kind of data set: Anthelmintic activity against Caenorhabditis elegans N2 Bristol assessed as mortality at 10 mM relative to control. The class given is functional.
For data set [5], the system named is Caenorhabditis elegans. Briefly: Anthelmintic activity against Caenorhabditis elegans N2 Bristol assessed as lethality. It is filed as functional.
The test system of the next data set is Plasmodium falciparum. Briefly: Antiprotozoal activity against Plasmodium falciparum NF54 intraerythrocytic forms incubated for 48 hrs by 3H-hypoxanthine incorporation assay. The class given is functional, organism-based.
The subject of a further data set is Trypanosoma brucei. Briefly: Antiprotozoal activity against bloodstream form Trypanosoma brucei STIB 900 trypomastigotes […] by microplate reader analysis. It is filed as functional, organism-based.
A further data set concerns Trypanosoma cruzi. Kind of data set: Antiprotozoal activity against Trypanosoma cruzi Tulahuen C4 amastigotes measured after 96 hrs by microplate reader analysis. The class given is functional, organism-based. The settings on record: Tulahuen C4, 96 h.
The nature of data set [6]: Cytotoxicity against rat L6 cells incubated for 72 hrs by Resazurin-dye based assay. It is filed as toxicity, cell-based. For orientation: The colour change of resazurin is a common sign of viable cells or microbes.

≈ marks a conversion by molar mass, not a printed value. Calls of active or inactive are those of the source. No cut-off for these calls is given here. Bounds are passed on as bounds.

Broadly, the IC50 is the concentration at which inhibition is half-maximal. For the molecule `COC(=O)[C@@]1(c2cc3ccccc3[nH]2)COCC=C2CN(C)CC[C@@H]21` [6,7-SECO-ANGUSTILOBINE B], the IC50 at 48 h in [1] is > 100 µM.

With `COC(=O)[C@@]1(c2cc3ccccc3[nH]2)COC[C@H]2O[C@]23CN(C)CC[C@@H]31`, the IC50 at 48 h in data set [1] is > 100 µM.

With `COC(=O)/C1=C/OC2=Nc3c(OC)cccc3[C@@]23CCN2C[C@@H](C(C)=O)[C@@H]1CC23`, the IC50 at 48 h in data set [1] is > 100 µM. With `C=C[C@@]12CN3CC[C@]1(O)[C@@](C(=O)OC)(CO2)c1[nH]c2ccccc2c1C3`, in the data set on Caenorhabditis elegans [2], the outcome was inactive. In addition, the IC50 at 48 h in data set [1] stood at 26 µM. Broadly, the mortality is the percentage killed. For the molecule `c1ccc([C@H]2CN3CCSC3=N2)cc1` [LEVAMISOLE], the mortality at 40000 µM in the data set with Caenorhabditis elegans [3] was 71%.

Turning to `CCCCCCCCCCCCCCCCOP(=O)([O-])OCC[N+](C)(C)C` [MILTEFOSINE], half-maximal inhibition in the data set with Leishmania donovani (IC50) was put at 0.26 µg/mL (≈ 0.638 µM). Turning to `COC(=O)C1=C2Nc3c(OC)cccc3[C@@]23CCN2C[C@@H]([C@H](C)O)[C@@H]1C[C@H]23`, the outcome in the data set with Caenorhabditis elegans [2] was inactive. Also, in data set [1], the IC50 at 48 h was > 100 µM. As for `COC(=O)C1=C2Nc3c(OC)cccc3[C@@]23CCN2C[C@@H](C(C)=O)[C@@H]1C[C@H]23`, in data set [1], the IC50 at 48 h is > 100 µM. For orientation: LC50 means the concentration that kills 50% of the test population. Consider `COC(=O)/C1=C/OC2=Nc3c(OC)cccc3[C@@]23CCN2C[C@@H]([C@H](C)O)[C@@H]1CC23`, for which the mortality at 10000 µM in the data set with Caenorhabditis elegans [4] amounted to 100%. Moreover, the IC50 at 48 h in [1] was > 100 µM. For the same molecule, in the data set with Caenorhabditis elegans [5], the LC50 worked out at 400 µM. As to `C=CC12OC[C@@]3(C(=O)OC)c4[nH]c5ccccc5c4C1NCCC23O`, the IC50 with Plasmodium falciparum is 2.4 µg/mL (≈ 7.05 µM); in the data set with Trypanosoma brucei it was 20 µg/mL (≈ 58.8 µM); in the data set with Trypanosoma cruzi it was > 100 µg/mL; in the data set on Leishmania donovani, 75 µg/mL (≈ 220 µM). In addition, in data set [1], the IC50 at 48 h was > 100 µM. The IC50 at 72 h in data set [6] was 50 µg/mL (≈ 147 µM). In turn, `O=C(Cn1ccnc1[N+](=O)[O-])NCc1ccccc1` [BENZNIDAZOLE] showed an IC50 with Trypanosoma cruzi of 0.69 µg/mL (≈ 2.65 µM). With `C/C=C1/CN2CC[C@@]34C(=Nc5c(OC)cccc53)O/C=C(/C(=O)OC)[C@H]1CC24`, the result in the data set on Caenorhabditis elegans [2] was inactive. In addition, the IC50 at 48 h in data set [1] was > 100 µM.

Source of the values: ChEMBL document CHEMBL5344423, “Alstoboonine, an Ulean-Type Indole Alkaloid from Alstonia boonei Leaves” (J Nat Prod, 2024).
